target: T1, human PAH with the R408W mutation (Homo sapiens, UniProt P00439, R408W); assay: Cell Based Phenylalanine Flux Assay; settings: A375 cells expressing human R408W PAH; 24 hrs compound incubation; 13C-Tyrosine by LC-MS; average where tested multiple times; read-out: AC50;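 also: after compound treatment, cells received sepiapterin plus isotope-labelled Phenylalanine for 4 hours, then labelled Tyrosine in the medium was quantified, 10-point 2-fold dilution series run in duplicate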
T1 construct: expressed in transfected cells
T1 sequence (P00439 1-452 R408W): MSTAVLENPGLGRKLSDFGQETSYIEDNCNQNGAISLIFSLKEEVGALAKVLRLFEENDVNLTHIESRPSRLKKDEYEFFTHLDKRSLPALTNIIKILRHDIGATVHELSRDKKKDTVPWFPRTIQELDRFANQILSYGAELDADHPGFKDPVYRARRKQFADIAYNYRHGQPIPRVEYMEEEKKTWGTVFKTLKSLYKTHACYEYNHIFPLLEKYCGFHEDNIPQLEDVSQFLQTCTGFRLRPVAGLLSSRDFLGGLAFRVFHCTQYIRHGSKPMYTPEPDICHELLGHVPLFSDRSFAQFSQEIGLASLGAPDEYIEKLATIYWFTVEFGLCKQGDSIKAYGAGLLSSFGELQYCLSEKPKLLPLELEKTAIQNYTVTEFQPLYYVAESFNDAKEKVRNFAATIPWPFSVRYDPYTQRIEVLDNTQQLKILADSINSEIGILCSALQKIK
Experimental: Compounds were resuspended in DMSO, and 2-fold serial dilutions were performed to generate a 10-point dose curve. Compounds were added to plated cells in a total volume of 100 µl, and a final DMSO concentration of 0.5%. Each compound was tested in duplicate. Following compound addition, cells were placed in a 5% CO2, 37° C. tissue culture incubator for 24 hrs. After the incubation period, 20 µM sepiapterin and 800 µM 13C9,15N-Phenylalanine were added. After 4 hours, cell media was removed. An aliquot of 10 µl of cell media was combined with 200 µl of extraction buffer (80% acetonitrile/20% H2O) for each well. Determination of ^13C-Tyrosine concentration was assessed by liquid chromatography mass spectrometry.
Where a compound was tested multiple times, the average value of the tests is reported.

SMILES | AC50 [nM]
COc1ccc(-c2nnc(C(=O)N3CCc4[nH]cnc4[C@@H]3c3cc4cccc(C(F)(F)F)n4n3)o2)cn1 [Example 1345, (R)-(5-(6-methoxypyridin-3-yl)-1,3,4-oxadiazol-2-yl)(4-(7-(trifluoromethyl)pyrazolo[1,5-a]pyridin-2-yl)-6,7-dihydro-1H-imidazo[4,5-c]pyridin-5(4H)-yl)methanone] | 1000 to 5000
O=C(c1nnc(-c2cccnc2)o1)N1CCc2[nH]cnc2[C@@H]1c1cc2ccccn2n1 [Example 1347, (R)-(4-(pyrazolo[1,5-a]pyridin-2-yl)-6,7-dihydro-1H-imidazo[4,5-c]pyridin-5(4H)-yl)(5-(pyridin-3-yl)-1,3,4-oxadiazol-2-yl)methanone] | 1000 to 5000
Cc1c(-c2nnc(C(=O)N3CCc4[nH]cnc4[C@H]3c3cc4c(C(F)F)cccn4n3)o2)cnn1C [Example 1348, (S)-(4-(4-(difluoromethyl)pyrazolo[1,5-a]pyridin-2-yl)-6,7-dihydro-1H-imidazo[4,5-c]pyridin-5(4H)-yl)(5-(1,5-dimethyl-1H-pyrazol-4-yl)-1,3,4-oxadiazol-2-yl)methanone] | < 500
CC(C)(F)c1nnc(C(=O)N2CCc3[nH]cnc3[C@@H]2c2cc3c(C(F)F)cccn3n2)o1 [Example 1351, (R)-(4-(4-(difluoromethyl)pyrazolo[1,5-a]pyridin-2-yl)-6,7-dihydro-1H-imidazo[4,5-c]pyridin-5(4H)-yl)(5-(2-fluoropropan-2-yl)-1,3,4-oxadiazol-2-yl)methanone] | > 5000
Cn1ccc(-c2nnc(C(=O)N3CCc4[nH]cnc4[C@H]3c3cc4c(C(F)F)cccn4n3)o2)n1 [Example 1352, (S)-(4-(4-(difluoromethyl)pyrazolo[1,5-a]pyridin-2-yl)-6,7-dihydro-1H-imidazo[4,5-c]pyridin-5(4H)-yl)(5-(1-methyl-1H-pyrazol-3-yl)-1,3,4-oxadiazol-2-yl)methanone] | < 500
CC1(c2nnc(C(=O)N3CCc4[nH]cnc4[C@H]3c3cc4cccc(C(F)(F)F)n4n3)o2)CC1 [Example 1354, (S)-(5-(1-methylcyclopropyl)-1,3,4-oxadiazol-2-yl)(4-(7-(trifluoromethyl)pyrazolo[1,5-a]pyridin-2-yl)-6,7-dihydro-1H-imidazo[4,5-c]pyridin-5(4H)-yl)methanone] | 500 to 1000
CC1(c2nnc(C(=O)N3CCc4[nH]cnc4[C@@H]3c3cc4cccc(C(F)(F)F)n4n3)o2)CC1 [Example 1355, (R)-(5-(1-methylcyclopropyl)-1,3,4-oxadiazol-2-yl)(4-(7-(trifluoromethyl)pyrazolo[1,5-a]pyridin-2-yl)-6,7-dihydro-1H-imidazo[4,5-c]pyridin-5(4H)-yl)methanone] | 1000 to 5000
Cc1ncccc1-c1nnc(C(=O)N2CCc3[nH]cnc3[C@H]2c2cc3cccc(C)n3n2)o1 [Example 1358, (S)-(4-(7-methylpyrazolo[1,5-a]pyridin-2-yl)-6,7-dihydro-1H-imidazo[4,5-c]pyridin-5(4H)-yl)(5-(2-methylpyridin-3-yl)-1,3,4-oxadiazol-2-yl)methanone] | < 500
Cc1ncccc1-c1nnc(C(=O)N2CCc3[nH]cnc3[C@@H]2c2cc3cccc(C)n3n2)o1 [Example 1359, (R)-(4-(7-methylpyrazolo[1,5-a]pyridin-2-yl)-6,7-dihydro-1H-imidazo[4,5-c]pyridin-5(4H)-yl)(5-(2-methylpyridin-3-yl)-1,3,4-oxadiazol-2-yl)methanone] | 1000 to 5000
O=C(c1nnc(-c2cnccn2)o1)N1CCc2[nH]cnc2[C@@H]1c1cc2cccc(C(F)(F)F)n2n1 [Example 1360, (R)-(5-(pyrazin-2-yl)-1,3,4-oxadiazol-2-yl)(4-(7-(trifluoromethyl)pyrazolo[1,5-a]pyridin-2-yl)-6,7-dihydro-1H-imidazo[4,5-c]pyridin-5(4H)-yl)methanone] | > 5000
O=C(c1nnc(-c2cnccn2)o1)N1CCc2[nH]cnc2[C@@H]1c1cc2ccccn2n1 [Example 1363, (R)-(5-(pyrazin-2-yl)-1,3,4-oxadiazol-2-yl)(4-(pyrazolo[1,5-a]pyridin-2-yl)-6,7-dihydro-1H-imidazo[4,5-c]pyridin-5(4H)-yl)methanone] | > 5000
Cc1c(-c2nnc(C(=O)N3CCc4[nH]cnc4[C@H]3c3cc4cccc(C(F)F)n4n3)o2)cnn1C [Example 1366, (S)-(4-(7-(difluoromethyl)pyrazolo[1,5-a]pyridin-2-yl)-6,7-dihydro-1H-imidazo[4,5-c]pyridin-5(4H)-yl)(5-(1,5-dimethyl-1H-pyrazol-4-yl)-1,3,4-oxadiazol-2-yl)methanone] | < 500
Cn1nc(C(F)F)cc1C(=O)N1CCc2[nH]cnc2[C@@H]1c1cc2c(Cl)cccn2n1 [Example 1369, (R)-(4-(4-chloropyrazolo[1,5-a]pyridin-2-yl)-6,7-dihydro-1H-imidazo(4,5-c]pyridin-5(4H)-yl)(3-(difluoromethyl)-1-methyl-1H-pyrazol-5-yl)methanone] | 1000 to 5000
Cn1nc(C(F)F)cc1C(=O)N1CCc2[nH]cnc2[C@H]1c1cc2c(C(F)(F)F)cccn2n1 [Example 1370, (S)-(3-(difluoromethyl)-1-methyl-1H-pyrazol-5-yl)(4-(4-(trifluoromethyl)pyrazolo[1,5-a]pyridin-2-yl)-6,7-dihydro-1H-imidazo[4,5-c]pyridin-5(4H)-yl)methanone] | < 500
O=C(c1nnc(-c2cnn(C(F)F)c2)o1)N1CCc2[nH]cnc2[C@H]1c1cc2c(C(F)F)cccn2n1 [Example 1374, (S)-(5-(1-(difluoromethyl)-1H-pyrazol-4-yl)-1,3,4-oxadiazol-2-yl)(4-(4-(difluoromethyl)pyrazolo[1,5-a]pyridin-2-yl)-6,7-dihydro-1H-imidazo[4,5-c]pyridin-5(4H)-yl)methanone] | < 500
O=C(c1nnc(-c2cnn(C(F)F)c2)o1)N1CCc2[nH]cnc2[C@@H]1c1cc2c(C(F)F)cccn2n1 [Example 1375, (R)-(5-(1-(difluoromethyl)-1H-pyrazol-4-yl)-1,3,4-oxadiazol-2-yl)(4-(4-(difluoromethyl)pyrazolo[1,5-a]pyridin-2-yl)-6,7-dihydro-1H-imidazo[4,5-c]pyridin-5(4H)-yl)methanone] | > 5000
O=C(c1nnc(-c2ccn(C(F)F)n2)o1)N1CCc2[nH]cnc2[C@H]1c1cc2c(C(F)F)cccn2n1 [Example 1377, (S)-(5-(1-(difluoromethyl)-1H-pyrazol-3-yl)-1,3,4-oxadiazol-2-yl)(4-(4-(difluoromethyl)pyrazolo[1,5-a]pyridin-2-yl)-6,7-dihydro-1H-imidazo[4,5-c]pyridin-5(4H)-yl)methanone] | < 500
CC1(c2nnc(C(=O)N3CCc4[nH]cnc4[C@H]3c3cc4c(F)cccn4n3)o2)CC1 [Example 1378, (S)-(4-(4-fluoropyrazolo[1,5-a]pyridin-2-yl)-6,7-dihydro-1H-imidazo[4,5-c]pyridin-5(4H)-yl)(5-(1-methylcyclopropyl)-1,3,4-oxadiazol-2-yl)methanone] | < 500
CC1(c2nnc(C(=O)N3CCc4[nH]cnc4[C@@H]3c3cc4c(F)cccn4n3)o2)CC1 [Example 1379, (R)-(4-(4-fluoropyrazolo[1,5-a]pyridin-2-yl)-6,7-dihydro-1H-imidazo[4,5-c]pyridin-5(4H)-yl)(5-(1-methylcyclopropyl)-1,3,4-oxadiazol-2-yl)methanone] | > 5000
O=C(c1nnc(-c2ncccn2)o1)N1CCc2[nH]cnc2[C@@H]1c1cc2c(C(F)(F)F)cccn2n1 [Example 1380, (R)-(5-(pyrimidin-2-yl)-1,3,4-oxadiazol-2-yl)(4-(4-(trifluoromethyl)pyrazolo[1,5-a]pyridin-2-yl)-6,7-dihydro-1H-imidazo[4,5-c]pyridin-5(4H)-yl)methanone] | 1000 to 5000
O=C(c1nnc(-c2ncccn2)o1)N1CCc2[nH]cnc2[C@H]1c1cc2c(C(F)(F)F)cccn2n1 [Example 1381, (S)-(5-(pyrimidin-2-yl)-1,3,4-oxadiazol-2-yl)(4-(4-(trifluoromethyl)pyrazolo[1,5-a]pyridin-2-yl)-6,7-dihydro-1H-imidazo[4,5-c]pyridin-5(4H)-yl)methanone] | 500 to 1000
Cc1cccc(-c2nnc(C(=O)N3CCc4[nH]cnc4[C@@H]3c3cc4ccccn4n3)o2)n1 [Example 1383, (R)-(5-(6-methylpyridin-2-yl)-1,3,4-oxadiazol-2-yl)(4-(pyrazolo[1,5-a]pyridin-2-yl)-6,7-dihydro-1H-imidazo[4,5-c]pyridin-5(4H)-yl)methanone] | > 5000
Cn1nc(C(F)F)cc1C(=O)N1CCc2[nH]cnc2[C@H]1c1cc2cccc(Cl)n2n1 [Example 1384, (S)-(4-(7-chloropyrazolo[1,5-a]pyridin-2-yl)-6,7-dihydro-1H-imidazo[4,5-c]pyridin-5(4H)-yl)(3-(difluoromethyl)-1-methyl-1H-pyrazol-5-yl)methanone] | < 500
Cc1cccc2cc([C@@H]3c4nc[nH]c4CCN3C(=O)c3cc(C(F)F)nn3C)nn12 [Example 1388, (S)-(3-(difluoromethyl)-1-methyl-1H-pyrazol-5-yl)(4-(7-methylpyrazolo[1,5-a]pyridin-2-yl)-6,7-dihydro-1H-imidazo[4,5-c]pyridin-5(4H)-yl)methanone] | < 500
Cc1cccc2cc([C@H]3c4nc[nH]c4CCN3C(=O)c3cc(C(F)F)nn3C)nn12 [Example 1389, (R)-(3-(difluoromethyl)-1-methyl-1H-pyrazol-5-yl)(4-(7-methylpyrazolo[1,5-a]pyridin-2-yl)-6,7-dihydro-1H-imidazo[4,5-c]pyridin-5(4H)-yl)methanone] | > 5000

Reference: patent US20230365592A1 (Agios Pharmaceuticals, Inc., priority 2022, published 2023)
